Data published in patent publication US12065436B2, “Cardiac sarcomere inhibitors” (Cytokinetics, Inc., priority 2018, dated 2024).
pIC50: −log10 of the molar value.

Biological target: bovine cardiac myofibrils (full-length cardiac myosin ATPase in the native sarcomere) (Bos taurus (Bovine), UniProt Q9BE39)
Assay: Skinned bovine cardiac myofibril ATPase assay (PK/LDH-coupled)
Type: biochemical
Conditions: Ca2+ activating to 75% of maximal rate; for CDMF75 IC15: concentration giving 15% inhibition; for pIC50: read-out: CDMF75 IC50
How it was run: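 Triton-skinned bovine left-ventricle myofibrils (1 mg/mL) in PM 12 buffer (12 mM PIPES, 2 mM MgCl2, pH 6.8) with 50 μM ATP, 0.6 mM EGTA and CaCl2 set for 50% or 75% activation. Steady-state ATPase inhibition followed by PK/LDH-coupled NADH oxidation at 340 nm.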

Chain of bovine cardiac myofibrils (full-length cardiac myosin ATPase in the native sarcomere) (Q9BE39 whole entry): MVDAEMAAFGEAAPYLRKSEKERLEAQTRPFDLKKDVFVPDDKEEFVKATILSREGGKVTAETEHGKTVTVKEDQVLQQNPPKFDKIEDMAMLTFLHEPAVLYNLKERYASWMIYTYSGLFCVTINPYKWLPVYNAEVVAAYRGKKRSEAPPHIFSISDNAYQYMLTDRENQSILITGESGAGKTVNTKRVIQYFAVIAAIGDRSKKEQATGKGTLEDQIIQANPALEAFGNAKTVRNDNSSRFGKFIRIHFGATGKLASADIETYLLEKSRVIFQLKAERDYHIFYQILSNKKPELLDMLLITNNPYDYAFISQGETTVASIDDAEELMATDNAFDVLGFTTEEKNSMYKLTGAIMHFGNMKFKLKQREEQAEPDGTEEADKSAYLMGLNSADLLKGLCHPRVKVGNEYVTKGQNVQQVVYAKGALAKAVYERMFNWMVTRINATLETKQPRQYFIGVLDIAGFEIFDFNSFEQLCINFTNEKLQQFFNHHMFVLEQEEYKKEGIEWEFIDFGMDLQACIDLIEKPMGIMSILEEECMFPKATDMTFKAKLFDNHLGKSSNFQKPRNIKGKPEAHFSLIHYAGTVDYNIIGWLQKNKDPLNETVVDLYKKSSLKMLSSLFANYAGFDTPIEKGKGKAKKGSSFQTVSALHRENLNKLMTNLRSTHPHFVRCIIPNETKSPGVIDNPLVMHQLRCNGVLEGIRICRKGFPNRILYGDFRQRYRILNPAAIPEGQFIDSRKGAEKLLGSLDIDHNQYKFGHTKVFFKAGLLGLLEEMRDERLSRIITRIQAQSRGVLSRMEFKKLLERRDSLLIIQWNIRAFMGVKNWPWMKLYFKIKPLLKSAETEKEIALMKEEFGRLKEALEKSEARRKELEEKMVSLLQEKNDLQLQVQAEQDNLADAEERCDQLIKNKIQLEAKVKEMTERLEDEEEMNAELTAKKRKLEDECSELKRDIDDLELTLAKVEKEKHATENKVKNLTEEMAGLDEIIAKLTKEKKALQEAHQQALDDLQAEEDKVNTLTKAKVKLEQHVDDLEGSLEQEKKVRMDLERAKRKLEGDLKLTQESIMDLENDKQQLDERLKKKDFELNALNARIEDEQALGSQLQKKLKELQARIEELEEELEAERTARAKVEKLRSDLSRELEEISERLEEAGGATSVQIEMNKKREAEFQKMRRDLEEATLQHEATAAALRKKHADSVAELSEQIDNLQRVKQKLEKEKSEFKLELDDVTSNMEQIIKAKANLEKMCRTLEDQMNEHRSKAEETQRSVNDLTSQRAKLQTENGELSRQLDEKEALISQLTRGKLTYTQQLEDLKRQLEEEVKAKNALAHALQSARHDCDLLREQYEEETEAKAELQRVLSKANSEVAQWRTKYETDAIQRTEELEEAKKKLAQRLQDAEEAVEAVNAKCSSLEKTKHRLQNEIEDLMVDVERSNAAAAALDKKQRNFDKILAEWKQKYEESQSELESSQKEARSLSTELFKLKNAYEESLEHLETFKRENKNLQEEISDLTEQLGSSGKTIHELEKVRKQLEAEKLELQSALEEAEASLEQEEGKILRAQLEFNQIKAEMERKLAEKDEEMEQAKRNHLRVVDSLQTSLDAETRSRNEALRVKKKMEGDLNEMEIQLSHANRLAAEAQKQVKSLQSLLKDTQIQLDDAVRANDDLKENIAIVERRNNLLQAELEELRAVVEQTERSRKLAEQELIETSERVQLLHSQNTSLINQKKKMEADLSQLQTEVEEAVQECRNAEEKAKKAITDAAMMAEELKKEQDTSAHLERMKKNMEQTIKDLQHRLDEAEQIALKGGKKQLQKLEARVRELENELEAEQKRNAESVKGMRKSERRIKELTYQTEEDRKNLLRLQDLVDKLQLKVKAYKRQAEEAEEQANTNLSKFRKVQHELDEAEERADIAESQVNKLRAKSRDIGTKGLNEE
Chain of bovine cardiac myofibrils (full-length cardiac myosin ATPase in the native sarcomere) (P85100 whole entry partner): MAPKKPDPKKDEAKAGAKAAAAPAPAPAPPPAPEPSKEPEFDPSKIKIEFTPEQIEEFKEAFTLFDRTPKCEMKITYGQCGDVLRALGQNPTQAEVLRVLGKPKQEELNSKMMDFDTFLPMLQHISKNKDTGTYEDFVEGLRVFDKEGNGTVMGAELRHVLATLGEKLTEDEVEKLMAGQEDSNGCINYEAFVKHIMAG
Chain of bovine cardiac myofibrils (full-length cardiac myosin ATPase in the native sarcomere) (Q3SZE5 whole entry partner): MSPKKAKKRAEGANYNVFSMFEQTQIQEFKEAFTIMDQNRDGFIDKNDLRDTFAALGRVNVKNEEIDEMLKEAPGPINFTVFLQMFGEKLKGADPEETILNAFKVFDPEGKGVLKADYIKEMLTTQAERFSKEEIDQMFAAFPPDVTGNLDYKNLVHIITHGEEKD

Structure (SMILES) | CDMF75 IC15 [µM] | pIC50
CCNC(=O)N[C@@H]1CCc2cc(-c3noc(C(F)F)n3)ccc21 [Compound 296, (R)-1-(5-(5-(difluoromethyl)-1,2,4-oxadiazol-3-yl)-2,3-dihydro-1H-inden-1-yl)-3-ethylurea] | 5.8 | < 4.41
O=C(N[C@@H]1CCc2cc(-c3noc(C(F)F)n3)ccc21)c1ccnc(C(F)F)c1 [Compound 685, (R)-2-(difluoromethyl)-N-(5-(5-(difluoromethyl)-1,2,4-oxadiazol-3-yl)-2,3-dihydro-1H-inden-1-yl)isonicotinamide] | 0.7 | 5.59
Cc1cc(C(=O)NC2CCc3cc(-c4ncc(C)o4)ccc32)ccn1 (stereo not shown) [Compound 140, 2-methyl-N-(5-(5-methyloxazol-2-yl)-2,3-dihydro-1H-inden-1-yl)isonicotinamide] | 7.6 | < 4.41
CCc1nc(-c2ccc3c(c2)CC[C@H]3NC(=O)Cc2ccccc2)no1 [Compound 591, (R)-N-(5-(5-ethyl-1,2,4-oxadiazol-3-yl)-2,3-dihydro-1H-inden-1-yl)-2-phenylacetamide] | 4.4 | 5.01
COCc1nc(-c2ccc3c(c2)OC[C@H]3NC(=O)c2ccnn2C)no1 [Compound 224, (S)-N-(6-(5-(methoxymethyl)-1,2,4-oxadiazol-3-yl)-2,3-dihydrobenzofuran-3-yl)-1-methyl-1H-pyrazole-5-carboxamide] | 0.6 | 5.68
CCc1nc(-c2ccc3c(c2)CC[C@H]3NC(=O)c2cc(C)ncn2)no1 [Compound 631, (R)-N-(5-(5-ethyl-1,2,4-oxadiazol-3-yl)-2,3-dihydro-1H-inden-1-yl)-6-methylpyrimidine-4-carboxamide] | 0.5 | 5.74
[2H]C([2H])([2H])c1noc(-c2ccc3c(c2)OC[C@H]3NC(=O)c2cnn(C)c2C)n1 [Compound 341, (S)-1,5-dimethyl-N-(6-(3-(methyl-d3)-1,2,4-oxadiazol-5-yl)-2,3-dihydrobenzofuran-3-yl)-1H-pyrazole-4-carboxamide] | 1.9 | 5.14
CCc1nc(-c2ccc3c(c2)CC[C@H]3NC(=O)c2cnco2)no1 [Compound 583, (R)-N-(5-(5-ethyl-1,2,4-oxadiazol-3-yl)-2,3-dihydro-1H-inden-1-yl)oxazole-5-carboxamide] | 0.4 | 5.89
CC(=O)O[C@@H](C)c1nc(-c2ccc3c(c2)CC[C@H]3NC(=O)c2cnn(C)c2)no1 [Compound 543, 1-(3-{(1R)-1-[(1-methylpyrazol-4-yl)carbonylamino]indan-5-yl}(1,2,4-oxadiazol-5-yl))(1S)ethyl acetate] | 4.6 | 4.76
Cc1ncc(C(=O)N[C@@H]2CCc3cc(-c4nc(C(F)F)no4)ccc32)o1 [Compound 215, (R)-N-(5-(3-(difluoromethyl)-1,2,4-oxadiazol-5-yl)-2,3-dihydro-1H-inden-1-yl)-2-methyloxazole-5-carboxamide] | 3.0 | 4.91
CCC(=O)N[C@@H]1CCc2cc(-c3noc(C(F)F)n3)ccc21 [Compound 283, (R)-N-(5-(5-(difluoromethyl)-1,2,4-oxadiazol-3-yl)-2,3-dihydro-1H-inden-1-yl)propionamide] | 9.6 | < 4.41
Cc1cc(C(=O)N[C@@H]2CCc3cc(-c4noc(C(F)F)n4)ccc32)on1 [Compound 679, (R)-N-(5-(5-(difluoromethyl)-1,2,4-oxadiazol-3-yl)-2,3-dihydro-1H-inden-1-yl)-3-methylisoxazole-5-carboxamide] | 0.8 | 5.52
O=C(N[C@@H]1CCc2cc(-c3noc(C4CC4)n3)ccc21)C(F)F [Compound 439, (R)-N-(5-(5-cyclopropyl-1,2,4-oxadiazol-3-yl)-2,3-dihydro-1H-inden-1-yl)-2,2-difluoroacetamide] | 1.1 | 5.32
[2H]C([2H])([2H])c1nc(-c2ccc3c(c2)CC[C@H]3NC(=O)c2nnn(C)n2)no1 [Compound 243, (R)-2-methyl-N-(5-(5-(methyl-d3)-1,2,4-oxadiazol-3-yl)-2,3-dihydro-1H-inden-1-yl)-2H-tetrazole-5-carboxamide] | 1.3 | 5.33

The remaining lines, values ahead:

CDMF75 IC15 [µM] | pIC50 | Structure (SMILES)
1.5 | 5.28 | Cc1nc(-c2ccc3c(c2)CC[C@H]3NC(=O)c2oc(C)nc2C)no1 [Compound 112, (R)-2,4-dimethyl-N-(5-(5-methyl-1,2,4-oxadiazol-3-yl)-2,3-dihydro-1H-inden-1-yl)oxazole-5-carboxamide]
9.8 | < 4.41 | O=C(NC1CCc2cc(-c3noc(C(F)F)n3)ccc21)c1ccn[nH]1 (stereo not shown) [Compound 49, N-(5-(5-(difluoromethyl)-1,2,4-oxadiazol-3-yl)-2,3-dihydro-1H-inden-1-yl)-1H-pyrazole-5-carboxamide]
8.9 | < 4.41 | CC(C)(C)OC(=O)NC1CCc2cc(-c3noc(C(F)F)n3)ccc21 (stereo not shown) [Compound 16, tert-butyl (5-(5-(difluoromethyl)-1,2,4-oxadiazol-3-yl)-2,3-dihydro-1H-inden-1-yl)carbamate]
30.9 | < 4.41 | O=C1CC[C@H](C(=O)N[C@@H]2CCc3cc(-c4noc(C5CC5)n4)ccc32)N1 [Compound 336, (R)-N-((R)-5-(5-cyclopropyl-1,2,4-oxadiazol-3-yl)-2,3-dihydro-1H-inden-1-yl)-5-oxopyrrolidine-2-carboxamide]
1.3 | 5.31 | Cc1nn(C)cc1C(=O)N[C@@H]1CCc2cc(-c3nc(C(F)F)no3)ccc21 [Compound 214, (R)-N-(5-(3-(difluoromethyl)-1,2,4-oxadiazol-5-yl)-2,3-dihydro-1H-inden-1-yl)-1,3-dimethyl-1H-pyrazole-4-carboxamide]
2.9 | 4.81 | CCc1nc(-c2ccc3c(c2)CC[C@H]3NC(=O)c2ccnn2CCO)no1 [Compound 607, (R)-N-(5-(5-ethyl-1,2,4-oxadiazol-3-yl)-2,3-dihydro-1H-inden-1-yl)-1-(2-hydroxyethyl)-1H-pyrazole-5-carboxamide]
0.3 | 6.00 | CCc1nc(-c2ccc3c(c2)CC[C@H]3NC(=O)c2cc(C)nn2C)no1 [Compound 567, (R)-N-(5-(5-ethyl-1,2,4-oxadiazol-3-yl)-2,3-dihydro-1H-inden-1-yl)-1,3-dimethyl-1H-pyrazole-5-carboxamide]
0.9 | 5.43 | COCc1nc(-c2ccc3c(c2)CC[C@H]3NC(=O)OC)no1 [Compound 306, methyl (R)-(5-(5-(methoxymethyl)-1,2,4-oxadiazol-3-yl)-2,3-dihydro-1H-inden-1-yl)carbamate]
0.5 | 5.72 | CCc1nc(-c2ccc3c(c2)CC[C@H]3NC(=O)OC2CCCC2)no1 [Compound 325, cyclopentyl (R)-(5-(5-ethyl-1,2,4-oxadiazol-3-yl)-2,3-dihydro-1H-inden-1-yl)carbamate]
1.4 | 5.25 | COCc1nc(-c2ccc3c(c2)CC[C@H]3NC(=O)c2cccc(C(C)O)c2)no1 (stereo partly drawn) [Compound 722, 3-(1-hydroxyethyl)-N-((R)-5-(5-(methoxymethyl)-1,2,4-oxadiazol-3-yl)-2,3-dihydro-1H-inden-1-yl)benzamide]
0.6 | 5.70 | CCc1cc(C(=O)N[C@@H]2CCc3cc(-c4noc(CC)n4)ccc32)ccn1 [Compound 660, (R)-2-ethyl-N-(5-(5-ethyl-1,2,4-oxadiazol-3-yl)-2,3-dihydro-1H-inden-1-yl)isonicotinamide]
4.6 | 4.64 | Cc1nn(C)cc1C(=O)NC1CCc2cc(-c3noc(CO)n3)ccc21 (stereo not shown) [Compound 79, N-(5-(5-(hydroxymethyl)-1,2,4-oxadiazol-3-yl)-2,3-dihydro-1H-inden-1-yl)-1,3-dimethyl-1H-pyrazole-4-carboxamide]
0.2 | 6.15 | CCc1nc(-c2ccc3c(c2)CC[C@H]3NC(=O)c2cccc(CO)c2)no1 [Compound 653, (R)-N-(5-(5-ethyl-1,2,4-oxadiazol-3-yl)-2,3-dihydro-1H-inden-1-yl)-3-(hydroxymethyl)benzamide]
3.1 | 4.87 | CC(=O)N[C@@H]1CCc2cc(-c3noc(C(C)C)n3)ccc21 [Compound 395, (R)-N-(5-(5-isopropyl-1,2,4-oxadiazol-3-yl)-2,3-dihydro-1H-inden-1-yl)acetamide]
0.5 | 5.72 | CCc1nc(-c2ccc3c(c2)CC[C@H]3NC(=O)c2cn(CCO)nc2C)no1 [Compound 597, (R)-N-(5-(5-ethyl-1,2,4-oxadiazol-3-yl)-2,3-dihydro-1H-inden-1-yl)-1-(2-hydroxyethyl)-3-methyl-1H-pyrazole-4-carboxamide]
2.6 | 4.88 | COCc1nc(-c2ccc3c(c2)CC[C@H]3NC(=O)c2cccc([C@@H](C)O)c2)no1 [Compound 729, 3-((R)-1-hydroxyethyl)-N-((R)-5-(5-(methoxymethyl)-1,2,4-oxadiazol-3-yl)-2,3-dihydro-1H-inden-1-yl)benzamide]
0.2 | 6.15 | CCc1nc(-c2ccc3c(c2)OC[C@H]3NC(=O)c2ocnc2C)no1 [Compound 455, (S)-N-(6-(5-ethyl-1,2,4-oxadiazol-3-yl)-2,3-dihydrobenzofuran-3-yl)-4-methyloxazole-5-carboxamide]
3.1 | 4.75 | CCc1nc(-c2ccc3c(c2)CC[C@H]3NC(=O)c2cc(C)n(C)n2)no1 [Compound 580, (R)-N-(5-(5-ethyl-1,2,4-oxadiazol-3-yl)-2,3-dihydro-1H-inden-1-yl)-1,5-dimethyl-1H-pyrazole-3-carboxamide]
